Assays:
TAS2R39 = target: T1, TAS2R39 (Homo sapiens, UniProt P59534); test: Calcium fluorescence functional assay, TAS2R39 cell line with mouse Gα15; assay type: cell-based; details: for TAS2R39 bitter receptor activity (functional response): 20 mM tastant, change in intracellular calcium; for EC50: approximately, increasing concentrations of tastant
T1 construct: expressed in transfected cells
T1 sequence (P59534 1-338): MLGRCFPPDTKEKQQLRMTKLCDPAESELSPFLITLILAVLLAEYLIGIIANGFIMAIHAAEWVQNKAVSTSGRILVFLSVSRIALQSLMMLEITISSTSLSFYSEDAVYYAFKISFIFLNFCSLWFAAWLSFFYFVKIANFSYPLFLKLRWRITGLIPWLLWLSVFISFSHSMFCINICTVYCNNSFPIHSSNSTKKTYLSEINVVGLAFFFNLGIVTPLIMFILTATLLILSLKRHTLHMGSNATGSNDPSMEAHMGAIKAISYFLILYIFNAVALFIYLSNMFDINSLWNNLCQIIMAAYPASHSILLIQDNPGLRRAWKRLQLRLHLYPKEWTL
Experimental: (§1) A panel of cell lines expressing eight specific bitter taste receptors, a subset of the panel of twenty-five bitter receptors described in International Patent Application Publication WO 2010/088633 (see, e.g., Example 26), was used for the purpose of these analyses. Accordingly, each cell line of the panel expressed a human bitter taste receptor and mouse Gα15 signaling protein.
(§2) Each of the Examples below utilized the following functional assay: • Day 1: Stable cell lines were seeded onto black wall/clear bottom 96-well, plates (e.g., Corning, 3904). Approximately 40K cells were added per well and incubated at 37° C., 5% CO2 overnight in cell growth media (DMEM (Sigma, D5796) supplemented with 10% Fetal Bovine Serum (Sigma, 5178), 2 mM Glutamine (Sigma, G7513)). • Day 2: Growth media was discarded and cells were incubated at 37° C., 5% CO2 for 60 minutes in 100 ul of load solution containing 1× Ca-3 dye (Molecular Devices, R8090), 1% DMSO in buffer containing 130 mM NaCl, 2 mM CaCl2, 5 mM KCl, 1.2 mM MgCl2, 10 mM HEPES and 10 mM Glucose (pH 7.0). Probenecid was not included in the load solution. • Functional assay: After dye loading, cell plates were placed in a fluorescent plate reader (e.g., FDSS6000 (Hamamatsu, Japan)) and receptor stimulation was measured by adding 50 ul of 3× concentrated ligand/agonist stock. Fluorescence was monitored continuously for 10 s before agonist addition and for 100-250 s after stimulation with agonist.
(§3) Receptor Activation is defined as follows: • % Activation=[((Maximum signal fluorescence−Minimum signal fluorescence)−(Maximum control fluorescence−Minimum control fluorescence))/(Maximum buffer fluorescence−Minimum buffer fluorescence)]*100 • Functional Response=[(Maximum signal fluorescence−Minimum signal fluorescence)−(Maximum control fluorescence−Minimum control fluorescence)] • Signal fluorescence: refers to the change in fluorescence seen with addition of ligand • Control fluorescence: refers to the change in fluorescence seen with addition of buffer (negative control) • Calcium signals from ligand and control were normalized to the basal fluorescence of the cells prior to the stimulation.
(§4) A concentration analysis was performed and EC50 values were calculated by nonlinear regression using the formula: Y=Bottom+(Top−Bottom)/(1+10^((Log EC50−X)*Hill Slope)), X=log of dose or concentration, Y=Response (increasing as X increases), Top=maximum signal, Bottom=minimum signal. EC50 (half maximal effective concentration) refers to the molar concentration of the agonist which produces 50% of the maximum possible effective response from that agonist.

TAS2R38 (PAV) = target: T2, TAS2R38 (PAV) (Homo sapiens, UniProt P59533, A49P/I296V); test: Calcium fluorescence functional assay, TAS2R38 (PAV) cell line with mouse Gα15; assay type: cell-based; details: for TAS2R38 (PAV) bitter receptor activity (functional response): 20 mM tastant, change in intracellular calcium; for EC50: approximately, increasing concentrations of tastant
T2 construct: expressed in transfected cells
T2 sequence (P59533 1-333 A49P/I296V): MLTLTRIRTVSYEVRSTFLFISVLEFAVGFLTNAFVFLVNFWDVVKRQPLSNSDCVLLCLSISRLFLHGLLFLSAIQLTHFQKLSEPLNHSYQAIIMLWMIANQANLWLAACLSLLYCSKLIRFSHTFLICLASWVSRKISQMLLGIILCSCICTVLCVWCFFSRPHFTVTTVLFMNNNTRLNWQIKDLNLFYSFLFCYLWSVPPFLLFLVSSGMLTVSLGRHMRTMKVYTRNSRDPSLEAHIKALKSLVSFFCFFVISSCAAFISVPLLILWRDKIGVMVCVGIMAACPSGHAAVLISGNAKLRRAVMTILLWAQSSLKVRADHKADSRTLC
Experimental: as §1, §2, §3, §4

TAS2R44 [1] = target: T3, TAS2R44 (Homo sapiens, UniProt P59538); test: Calcium fluorescence functional assay, TAS2R44 cell line with mouse Gα15; assay type: cell-based; details: for TAS2R44 bitter receptor activity (functional response): 20 mM tastant, change in intracellular calcium; for EC50: approximately, increasing concentrations of tastant
T3 construct: expressed in transfected cells
T3 sequence (P59538 1-309): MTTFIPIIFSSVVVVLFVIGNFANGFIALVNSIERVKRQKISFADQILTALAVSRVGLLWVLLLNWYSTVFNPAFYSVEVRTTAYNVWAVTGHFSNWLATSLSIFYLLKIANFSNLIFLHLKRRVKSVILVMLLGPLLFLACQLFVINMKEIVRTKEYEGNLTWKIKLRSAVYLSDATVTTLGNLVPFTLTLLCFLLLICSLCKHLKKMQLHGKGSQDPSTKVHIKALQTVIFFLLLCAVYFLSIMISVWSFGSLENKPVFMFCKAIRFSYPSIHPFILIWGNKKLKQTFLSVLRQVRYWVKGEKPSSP
Experimental: as §1, §2, §3, §4

TAS2R4 = target: T4, TAS2R4 (Homo sapiens, UniProt Q9NYW5); test: Calcium fluorescence functional assay, TAS2R4 cell line with mouse Gα15; assay type: cell-based; details: for TAS2R4 bitter receptor activity (functional response): 20 mM tastant, change in intracellular calcium; for EC50: approximately, increasing concentrations of tastant
T4 construct: expressed in transfected cells
T4 sequence (Q9NYW5 1-299): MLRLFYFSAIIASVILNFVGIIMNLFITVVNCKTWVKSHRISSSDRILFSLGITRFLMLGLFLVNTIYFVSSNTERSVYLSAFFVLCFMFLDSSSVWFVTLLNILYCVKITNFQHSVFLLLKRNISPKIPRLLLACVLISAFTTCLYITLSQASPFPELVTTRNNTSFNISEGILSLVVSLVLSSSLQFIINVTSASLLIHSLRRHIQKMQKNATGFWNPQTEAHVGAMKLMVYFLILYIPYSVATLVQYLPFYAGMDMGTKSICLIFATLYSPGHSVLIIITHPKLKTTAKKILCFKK
Experimental: as §1, §2, §3, §4

TAS2R60 = target: T5, TAS2R60 (Homo sapiens, UniProt P59551); details: PCT/US12/61400; cited from earlier work
T5 construct: expressed in transfected cells
T5 sequence (P59551 1-318): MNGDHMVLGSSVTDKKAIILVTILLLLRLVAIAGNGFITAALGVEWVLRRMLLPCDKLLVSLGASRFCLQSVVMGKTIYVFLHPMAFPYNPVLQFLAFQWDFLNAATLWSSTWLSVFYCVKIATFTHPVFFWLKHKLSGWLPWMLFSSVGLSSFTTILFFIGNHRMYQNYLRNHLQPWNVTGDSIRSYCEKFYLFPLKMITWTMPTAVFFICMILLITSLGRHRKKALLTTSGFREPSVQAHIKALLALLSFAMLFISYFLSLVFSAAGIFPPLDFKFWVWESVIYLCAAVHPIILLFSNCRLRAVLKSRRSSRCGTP

TAS2R44 [2] = target: T3, TAS2R44; details: PCT/US12/61400; cited from earlier work

Row | Structure (SMILES) | TAS2R39 bitter receptor activity (functional response) (TAS2R39) | EC50 (TAS2R39) [mM] | TAS2R38 (PAV) bitter receptor activity (functional response) (TAS2R38 (PAV)) | EC50 (TAS2R38 (PAV)) [mM] | TAS2R44 bitter receptor activity (functional response) (TAS2R44 [1]) | EC50 (TAS2R44 [1]) [mM] | TAS2R4 bitter receptor activity (functional response) (TAS2R4) | EC50 (TAS2R4) [mM] | TAS2R60 response to stimulation, previously shown (TAS2R60) | TAS2R44 response to stimulation, previously shown (TAS2R44 [2])
1 | O=C([O-])c1ccccc1.[K+] [potassium benzoate] | induced | 5 to 10 | induced | 5 to 10 | induced | 5 to 10 | induced | 5 to 10 |  | 
2 | O=S(=O)([O-])[O-].[K+].[K+] [potassium sulfate] | induced |  | induced |  | induced |  | induced |  |  | 
3 | C/C=C/C=C/C(=O)[O-].[K+] [potassium sorbate] | induced |  | induced |  | induced |  | induced |  |  | 
4 | [Cl-].[K+] [KCl] | strongly and specifically responded | 5 to 15 | strongly and specifically responded | 5 to 15 |  |  |  |  | specifically respond | specifically respond
5 | O=[N+]([O-])[O-].[K+] [potassium nitrate] | induced |  | induced |  | induced |  | induced |  |  | 
6 | O=C([O-])[C@H](O)[C@@H](O)[C@H](O)[C@H](O)CO.[K+] [potassium gluconate] | induced |  | induced |  | induced |  | induced |  |  | 
7 | O=P([O-])([O-])O.[K+].[K+] [potassium phosphate (dibasic)] | induced |  | induced |  | induced |  | induced |  |  | 
8 | CC(=O)[O-].[K+] [potassium acetate] | did not induce |  | did not induce |  | induced | 5 to 10 | induced | 5 to 10 |  | 

— patent US9927424B2, “Assays for identifying compounds that modulate bitter taste” (Chromocell Corporation, priority 2013, dated 2018)
